Measured values from paper PMC2667100 (Molecular and cellular endocrinology, 2008).
Positions count from the first letter of the chain named. Like-named read-outs stand apart in the source and are kept apart here.

Tests used:
[1] = tested on: MCF-7 Tet-off 3β-HSD1 aromatase cells; assay: Inhibition of DHEA-stimulated proliferation; type: cell-based, human; conditions: for fold higher affinity, 3β-HSD1 cells relative to 3β-HSD2 cells (IC50): ratio of proliferation IC50 values
[2] = tested on: MCF-7 Tet-off 3β-HSD2 aromatase cells; assay: Inhibition of DHEA-stimulated proliferation; type: cell-based, human; conditions: DHEA 5 nM, concentration-dependent
purified human 3β-HSD1 [3] = target: T1, purified human 3β-HSD1 (Homo sapiens, UniProt P14060); assay: Substrate and cofactor kinetics of the isomerase activity; type: biochemical; conditions: 27°C, pH 7.4
T1 sequence (P14060 whole entry): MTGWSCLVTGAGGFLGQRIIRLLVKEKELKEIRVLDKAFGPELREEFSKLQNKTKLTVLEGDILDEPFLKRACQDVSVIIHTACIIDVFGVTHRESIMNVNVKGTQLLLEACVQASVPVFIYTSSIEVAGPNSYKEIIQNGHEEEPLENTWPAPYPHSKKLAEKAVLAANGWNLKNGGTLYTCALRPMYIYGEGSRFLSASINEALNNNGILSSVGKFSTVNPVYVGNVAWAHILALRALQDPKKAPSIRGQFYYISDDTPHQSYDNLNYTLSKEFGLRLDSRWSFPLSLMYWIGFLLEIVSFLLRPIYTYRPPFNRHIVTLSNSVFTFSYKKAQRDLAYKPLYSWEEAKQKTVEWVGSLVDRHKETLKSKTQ

purified human 3β-HSD2 [4] = target: T2, purified human 3β-HSD2 (Homo sapiens, UniProt P26439); assay: as above; type: biochemical; conditions: 27°C, pH 7.4
T2 sequence (P26439 1-372): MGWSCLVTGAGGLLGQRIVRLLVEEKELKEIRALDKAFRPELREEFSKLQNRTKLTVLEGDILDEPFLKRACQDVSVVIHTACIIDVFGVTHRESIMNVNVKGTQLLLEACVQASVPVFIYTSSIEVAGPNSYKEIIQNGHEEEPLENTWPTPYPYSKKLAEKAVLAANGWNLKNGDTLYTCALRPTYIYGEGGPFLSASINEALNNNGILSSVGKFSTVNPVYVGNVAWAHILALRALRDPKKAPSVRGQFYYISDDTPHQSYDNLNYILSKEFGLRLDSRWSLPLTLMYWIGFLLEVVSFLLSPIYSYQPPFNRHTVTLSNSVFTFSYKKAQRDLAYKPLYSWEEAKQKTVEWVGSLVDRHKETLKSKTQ

[5] = target: T3, purified human P195R-2 mutant of 3β-HSD2 (Homo sapiens, UniProt P26439, P195R); assay: as above; type: biochemical; conditions: 27°C, pH 7.4
T3 sequence (P26439 1-372 P195R): T2 sequence (P26439 1-372) with P195R

purified human 3β-HSD1 [6] = target: T1, purified human 3β-HSD1; assay: Inhibition kinetics of purified enzyme; type: biochemical
purified human 3β-HSD2 [7] = target: T2, purified human 3β-HSD2; assay: Inhibition kinetics of purified enzyme; type: biochemical; conditions: for mode of inhibition: Dixon analysis
[8] = target: T3, purified human P195R-2 mutant of 3β-HSD2; assay: Inhibition kinetics of purified enzyme; type: biochemical
[9] = tested on: MCF-7 Tet-off 3β-HSD1 aromatase cells; assay: Stimulation of proliferation; type: cell-based, human; conditions: for stimulation of cell growth: no dox; for EC50: Homo sapiens, MCF7, 240 h, read-out: EC50, stimulation of growth
[10] = tested on: MCF-7 Tet-off 3β-HSD2 aromatase cells; assay: Stimulation of proliferation; type: cell-based, human; conditions: for stimulation of cell growth: no dox; for EC50: Homo sapiens, MCF7, 240 h, read-out: EC50, stimulation of growth
purified human 3β-HSD1 [11] = target: T1, purified human 3β-HSD1; assay: Substrate and cofactor kinetics of the 3β-HSD activity; type: biochemical; conditions: 27°C, pH 7.4
[12] = target: T3, purified human P195R-2 mutant of 3β-HSD2; assay: as above; type: biochemical
purified human 3β-HSD2 [13] = target: T2, purified human 3β-HSD2; assay: as above; type: biochemical; conditions: 27°C, pH 7.4
[14] = tested on: MCF-7 Tet-off 3β-HSD1 and 3β-HSD2 aromatase cells; assay: DHEA stimulation of proliferation, mean over both recombinant cell lines; type: cell-based; conditions: Homo sapiens, MCF7, read-out: mean EC50, stimulation of proliferation
MCF-7 cells = assay: Proliferation of MCF-7 cells in the absence of DHEA substrate; type: cell-based, human
[15] = 5-androstene-3,17-dione 20–100 μM, NADH 0.05 mM
[16] = DHEA 8.0 or 20.0 μM, NAD+ 0.2 mM, 27 °C, pH 7.4
[17] = NADH 0–50 μM, 5-androstene-3,17-dione 100 μM
[18] = read-out: Km, isomerase cofactor (allosteric activator), NADH 0–50 μM, 5-androstene-3,17-dione 100 μM
[19] = read-out: Km, 3β-HSD cofactor, NAD+ 10–200 μM, DHEA 100 μM

With 4-hydroxy-tamoxifen as the molecule, how does the “effect on DHEA-stimulated proliferation” value ([1]; DHEA 5 nM, concentration-dependent) read?
The value was “decreases the DHEA-stimulated proliferation”.

And the “effect on DHEA-stimulated proliferation” value [2]?
Its value is “decreases the DHEA-stimulated proliferation”.

Which results are given for C[C@]12CCC(=O)CC1=CC[C@@H]1[C@@H]2CC[C@]2(C)C(=O)CC[C@@H]12 [5-androstene-3,17-dione]?
kcat, isomerase substrate (purified human 3β-HSD1 [3]; [15]): 0.837 ± 0.0333 s⁻¹; kcat, isomerase substrate (purified human 3β-HSD2 [4]; [15]): 1.36 ± 0.1 s⁻¹; kcat, isomerase substrate [5, 15]: 2.18 ± 0.163 s⁻¹; Km ([5]; read-out: Km, isomerase substrate, 5-androstene-3,17-dione 20–100 μM, NADH 0.05 mM): 119 ± 5 µM

Which Ki (purified human 3β-HSD1 [6]; DHEA 4.0 or 8.0 μM, NAD+ 0.2 mM, 27 °C, pH 7.4) does the source give for CC(=O)OC1CCC2C3CCC45OC4C(O)=C(C#N)CC5(C)C3CCC12C (stereo not drawn) [17β-acetoxy-trilostane] here?
The Ki was 430 ± 30 nM.

And the Ki (purified human 3β-HSD2 [7]; [16])?
Its Ki is 1590 ± 100 nM.

And the mode of inhibition (purified human 3β-HSD2 [7])?
Its mode of inhibition is “non-competitive”.

And the Ki [8, 16]?
Its Ki is 390 ± 30 nM.

For C[C@]12CCC(=O)C=C1CC[C@@H]1[C@@H]2CC[C@]2(C)C(=O)CC[C@@H]12 [Androstenedione, androstenedione], which “stimulation of cell growth” value [9] is on record?
The value was “stimulates the proliferation”.

What about the “stimulation of cell growth” value [10] of the same molecule?
Its value is “stimulates the proliferation”.

Which “kcat, 3β-HSD substrate” value (purified human 3β-HSD1 [11]; DHEA 2–100 μM, NAD+ 0.2 mM) does the source give for C[C@]12CC[C@H](O)CC1=CC[C@@H]1[C@@H]2CC[C@]2(C)C(=O)CC[C@@H]12 [DHEA, Dehydroepiandrosterone] here?
The value was 0.055 ± 0.0033 s⁻¹.

What about the “kcat, 3β-HSD substrate” value ([12]; DHEA 2–100 μM, NAD+ 0.2 mM, 27°C, pH 7.4) of the same molecule?
Its value is 0.158 ± 0.012 s⁻¹.

And the “fold higher affinity for substrate, P195R-2 vs wild-type 3β-HSD2 (Km)” value ([12]; ratio of Km values)?
Its value is 3.6 fold.

What about the Km ([12]; read-out: Km, 3β-HSD substrate, DHEA 2–100 μM, NAD+ 0.2 mM, 27°C, pH 7.4) of the same molecule?
The Km was 13.3 ± 2.5 µM.

What about the “kcat, 3β-HSD substrate” value (purified human 3β-HSD2 [13]; DHEA 2–100 μM, NAD+ 0.2 mM) of the same molecule?
The value was 0.115 ± 0.0083 s⁻¹.

What about the “stimulation of cell growth” value [9] of the same molecule?
The value was “stimulated”.

What about the EC50 [14] of the same molecule?
The EC50 was 5 nM.

What about the “stimulation of cell growth” value [10] of the same molecule?
Its value is “stimulated”.

How did the “stimulation of cell growth” value [9] turn out when C[C@]12CC[C@H](OS(=O)(=O)O)CC1=CC[C@@H]1[C@@H]2CC[C@]2(C)C(=O)CC[C@@H]12 [DHEA-S, dehydroepiandrosterone-sulfate] was run?
Its value is “stimulated”.

And the “stimulation of cell growth” value [10]?
Its value is “stimulated”.

Which “kcat, isomerase cofactor (allosteric activator)” value (“kcat, isomerase cofactor” for short) (purified human 3β-HSD1 [3]; [17]) does the source give for NC(=O)C1=CN([C@@H]2O[C@H](COP(=O)(O)OP(=O)(O)OC[C@H]3O[C@@H](n4cnc5c(N)ncnc54)[C@H](O)[C@@H]3O)[C@@H](O)[C@H]2O)C=CC1 [NADH] here?
Its value is 0.75 ± 0.03 s⁻¹.

What about the Km (purified human 3β-HSD1 [3]; [18]) of the same molecule?
Its Km is 4.6 ± 0.2 µM.

And the “kcat, isomerase cofactor” value (purified human 3β-HSD2 [4]; [17])?
The value was 1.65 ± 0.107 s⁻¹.

And the Km (purified human 3β-HSD2 [4]; [18])?
Its Km is 12.6 ± 0.9 µM.

What about the “kcat, isomerase cofactor” value [5, 17] of the same molecule?
The value was 1.49 ± 0.0967 s⁻¹.

And the Km [5, 18]?
The Km was 10 ± 0.2 µM.

Which results are given for NC(=O)c1ccc[n+]([C@@H]2O[C@H](COP(=O)([O-])OP(=O)(O)OC[C@H]3O[C@@H](n4cnc5c(N)ncnc54)[C@H](O)[C@@H]3O)[C@@H](O)[C@H]2O)c1 [NAD^+]?
kcat, 3β-HSD cofactor (purified human 3β-HSD1 [11]; NAD+ 10–200 μM, DHEA 100 μM): 0.0583 ± 0.0033 s⁻¹; Km (purified human 3β-HSD1 [11]; [19]): 34.1 ± 1.7 µM; kcat, 3β-HSD cofactor ([12]; NAD+ 10–200 μM, DHEA 100 μM, 27°C, pH 7.4): 0.153 ± 0.005 s⁻¹; Km ([12]; read-out: Km, 3β-HSD cofactor, NAD+ 10–200 μM, DHEA 100 μM, 27°C, pH 7.4): 56.4 ± 3.2 µM; kcat, 3β-HSD cofactor (purified human 3β-HSD2 [13]; NAD+ 10–200 μM, DHEA 100 μM): 0.118 ± 0.01 s⁻¹; Km (purified human 3β-HSD2 [13]; [19]): 86.3 ± 5.6 µM

C[C@]1(O)CC[C@H]2[C@@H]3CC[C@@]45O[C@]4(C)C(O)=C(C#N)C[C@]5(C)[C@H]3CC[C@@]21C [epostane] was tested. Which “ER-agonist activity (stimulation of proliferation)” value (shortened to “ER-agonist activity”) (MCF-7 cells) did it give?
Its value is “none of these compounds has ER-agonist activity”.

And the “fold higher affinity, 3β-HSD1 cells relative to 3β-HSD2 cells (IC50)” value [1]?
The value was 12 fold.

How did the EC50 [9] turn out when C[C@]12CC[C@@H]3c4ccc(O)cc4CC[C@H]3[C@@H]1CC[C@@H]2O [estradiol] was run?
The EC50 was 0.24 nM.

What about the EC50 [10] of the same molecule?
The EC50 was 0.32 nM.

C[C@]12CC[C@@H]3c4ccc(O)cc4CC[C@H]3[C@@H]1CCC2=O [estrone] was tested. Which EC50 [9] did it give?
The EC50 was 0.39 nM.

And the EC50 [10]?
Its EC50 is 0.34 nM.

How did the “ER-agonist activity” value (MCF-7 cells) turn out when N#Cc1ccc(C(c2ccc(C#N)cc2)n2cncn2)cc1 [letrozole] was run?
Its value is “none of these compounds has ER-agonist activity”.

How did the “ER-agonist activity” value (MCF-7 cells) turn out when C[C@]12CC[C@H]3[C@@H](CC[C@@]45O[C@@H]4C(O)=C(C#N)C[C@]35C)[C@@H]1CC[C@@H]2O [trilostane, 2α-cyano-4α,5α-epoxy-17β-ol-androstane-3-one] was run?
The value was “none of these compounds has ER-agonist activity”.

And the “fold higher affinity, 3β-HSD1 cells relative to 3β-HSD2 cells (IC50)” value [1]?
Its value is 16 fold.

What about the Ki (purified human 3β-HSD1 [6]) of the same molecule?
Its Ki is 100 ± 10 nM.

What about the “fold higher affinity for 3β-HSD1 than 3β-HSD2 (Ki)” value (purified human 3β-HSD1 [6]; purified enzymes) of the same molecule?
Its value is 16 fold.

And the Ki (purified human 3β-HSD2 [7])?
The Ki was 1600 ± 100 nM.

And the mode of inhibition (purified human 3β-HSD2 [7])?
The mode of inhibition was “noncompetitively”.

What about the Ki [8] of the same molecule?
Its Ki is 190 ± 20 nM.
